Converted amounts (≈) assume the structure as drawn. Like-named read-outs stand apart in the source and are kept apart here.
Columns and labels:
[1] = biological target: T1, beta-catenin/TCF4 engagement (Homo sapiens, UniProt P35222); assay: Nano-BRET target engagement assay (B-cat-Halo & TCF4-Luc in HEK293 cells); type: cell-based; settings: for inhibition at 10 µM: read-out: NanoBRET % inh @ 10 uM; for IC50: absolute IC50
T1 construct: expressed in transfected cells; host or cells: HEK293
T1 sequence (P35222 1-781): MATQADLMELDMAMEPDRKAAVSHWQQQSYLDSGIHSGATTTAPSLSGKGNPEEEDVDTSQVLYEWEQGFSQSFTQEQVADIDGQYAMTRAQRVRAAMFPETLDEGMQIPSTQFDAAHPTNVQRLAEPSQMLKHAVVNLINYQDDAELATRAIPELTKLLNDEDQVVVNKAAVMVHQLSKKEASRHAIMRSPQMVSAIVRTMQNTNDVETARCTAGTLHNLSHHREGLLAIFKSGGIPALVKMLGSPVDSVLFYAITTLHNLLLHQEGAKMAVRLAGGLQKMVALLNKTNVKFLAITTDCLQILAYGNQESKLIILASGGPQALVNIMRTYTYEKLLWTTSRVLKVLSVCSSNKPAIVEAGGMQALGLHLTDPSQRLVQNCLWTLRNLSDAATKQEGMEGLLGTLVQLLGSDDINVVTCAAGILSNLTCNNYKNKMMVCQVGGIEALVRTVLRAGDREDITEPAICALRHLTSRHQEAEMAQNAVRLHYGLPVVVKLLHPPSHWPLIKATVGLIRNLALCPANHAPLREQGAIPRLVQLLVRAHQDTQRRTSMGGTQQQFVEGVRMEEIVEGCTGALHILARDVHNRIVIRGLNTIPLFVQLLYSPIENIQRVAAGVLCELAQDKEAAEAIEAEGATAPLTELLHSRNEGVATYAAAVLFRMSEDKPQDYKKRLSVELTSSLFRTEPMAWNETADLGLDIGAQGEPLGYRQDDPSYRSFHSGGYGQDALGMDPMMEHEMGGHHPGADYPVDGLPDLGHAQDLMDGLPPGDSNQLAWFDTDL

[2] = CHI Log D procedure; type: physicochemical
[3] = Solubility in PBS; type: physicochemical
Method in brief: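 The PBS solution was ultracentrifuged and the supernatant analyzed by HPLC. Its peak area was divided by that of a 50 μM peptide DMSO reference injection and multiplied by 50 uM to give solubility.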

[4] = biological target: T2, full-length beta-Catenin (Uniprot ID P35222) (Homo sapiens, UniProt P35222); assay: Fluorescence polarization IC50 (beta-catenin / 5FAM-TCF4 10-53 competition); type: binding
T2 construct: 10 nM full-length beta-Catenin (Uniprot ID P35222)
T2 sequence (P35222 1-781): T1 sequence (P35222 1-781)

[5] = fluorescence polarization, read-out: beta-Catenin FP IC50
[6] = fluorescence polarization, beta-catenin, read-out: FP EC50

| Compound | Solubility [3] [µM] | IC50 [4, 5] [nM] | chromatographic logD ([2]; pH 7.4, CHI Log D) | Solubility ([3]; Solubility (uM)) [µM] | IC50 ([4]; read-out: beta-Catenin FP IC50) [nM] | other results |
| --- | --- | --- | --- | --- | --- | --- |
| CC(=O)N1CCC[C@]12CC=CCCCC1(CCCC=CCCCCCC[C@@](C)(C(=O)N[C@@H](Cc3ccccc3)C(=O)N[C@@H](C)C(=O)N[C@@H](CCC(N)=O)C(N)=O)NC(=O)[C@H](C(C)C)NC(=O)[C@H](Cc3ccccc3)NC(=O)[C@H](C)NC(=O)[C@H](C)NC(=O)[C@H](CC(=O)O)NC(=O)[C@H](CC(=O)O)NC1=O)NC(=O)[C@H](C)NC(=O)[C@H](CC(=O)O)NC2=O (stereo partly drawn) [I-357, Ac-PL3-Asp-Ala-B5-Asp-Asp-Ala-Ala-Phe-Val-S8-Phe-Ala-Gln-NH2] | 46 (≈ 76.6 µg/mL) | – | – | – | – | inhibition at 10 µM ([1]; HEK293, 10 uM): -5.3%; CHI Log D ([2]; pH 7.4): 1.852 |
| CC[C@H](C)[C@@H]1NC(=O)[C@H](CC(=O)O)NC(=O)[C@]2(CC=CCCCC3(CCCC=CCCCCCC[C@@](C)(C(=O)N[C@@H](Cc4ccccc4)C(=O)N[C@@H](Cc4csc5ccccc45)C(=O)N[C@@H](CCC(N)=O)C(N)=O)NC(=O)[C@H](CCC(N)=O)NC(=O)[C@H](Cc4ccccc4)NC(=O)[C@H](C)NC(=O)[C@H](C)NC(=O)[C@H](CCC(=O)O)NC(=O)[C@H](CC(=O)O)NC3=O)NC1=O)CCCN2C(C)=O (stereo partly drawn) [I-407, Ac-PL3-Asp-Ile-B5-Asp-Glu-Ala-Ala-Phe-Gln-S8-Phe-BztA-Gln-NH2] | 50 (≈ 94.2 µg/mL) | 30 | 2.39 | – | – | inhibition at 10 µM ([1]; HEK293, @ 10 uM): 55.1% |
| COc1ccccc1C[C@H](NC(=O)[C@]1(C)CCCCCCC=CCCCC2(CCCC=CC[C@]3(CCCN3C(C)=O)C(=O)N[C@@H](CC(=O)O)C(=O)N[C@@H](C)C(=O)N2)C(=O)N[C@@H](CC(=O)O)C(=O)N[C@@H](CCC(=O)O)C(=O)N[C@@H](C)C(=O)N[C@@H](C)C(=O)N[C@@H](Cc2ccccc2)C(=O)N[C@@H](CC(N)=O)C(=O)N1)C(=O)N[C@@H](Cc1csc2ccccc12)C(=O)N[C@@H](CCC(N)=O)C(N)=O (stereo partly drawn) [I-437, Ac-PL3-Asp-Ala-B5-Asp-Glu-Ala-Ala-Phe-Asn-S8-2OMeF-BztA-Gln-NH2] | – | 26 | 2 | 44 (≈ 81.7 µg/mL) | – | IC50 ([1]; read-out: NanoBRET Abs IC50): 17.5 µM |
| C[C@@H]1NC(=O)[C@H](C)NC(=O)[C@H](CN(CC(=O)O)CC(F)(F)F)NC(=O)[C@H](CC(=O)O)NC(=O)C2(CCCC=CCCCOC(=O)N3CC[C@@](C(=O)N[C@@H](Cc4ccsc4)C(=O)N[C@@H](Cc4csc5ccccc45)C(=O)N[C@@H](CCC(N)=O)C(N)=O)(C3)NC(=O)[C@H](CC(N)=O)NC(=O)[C@H](Cc3ccccc3)NC1=O)CCCC=CC[C@]1(CCCN1C(=O)CN=[N+]=[N-])C(=O)N[C@@H](CC(=O)O)C(=O)N[C@@H](CC(C)(C)C)C(=O)N2 (stereo partly drawn) [I-1054, AzAc-PL3-Asp-Npg-B5-Asp-TfeGA-Ala-Ala-Phe-Asn-PyrS2-3Thi-BztA-Gln-NH2] | 46 (≈ 95.2 µg/mL) | – | – | – | – | IC50 ([1]; NanoBRET Abs IC50 (uM)): > 20 µM; chromatographic logD ([2]; pH 7.4): 2.19 |
| CC(=O)N1CCC[C@]12CC=CCCCC1(CCCC=CCCCCCC[C@@](C)(C(=O)N[C@@H](Cc3ccsc3)C(=O)N[C@@H](Cc3csc4ccccc34)C(=O)N[C@@H](CCC(N)=O)C(N)=O)NC(=O)[C@H](CC(N)=O)NC(=O)[C@H](Cc3ccccc3)NC(=O)[C@H](C)NC(=O)[C@H](C)NC(=O)[C@H](CC(=O)O)NC(=O)[C@H](CC(=O)O)NC1=O)NC(=O)[C@H](CC(C)(C)C)NC(=O)C[C@H](CC(=O)O)NC2=O (stereo partly drawn) [I-1163, Ac-PL3-RbGlu-Npg-B5-Asp-Asp-Ala-Ala-Phe-Asn-S8-3Thi-BztA-Gln-NH2] | 48 (≈ 90.7 µg/mL) | 691 | – | – | – | IC50 [4, 6]: 691 nM; CHI Log D ([2]; pH 7.4): 2.059 |
| CC(=O)N1CCC[C@]12CC=CCCCC1(CCCC=CCCCCCC[C@@](C)(C(=O)N[C@@H](Cc3ccsc3)C(=O)N[C@@H](Cc3csc4ccccc34)C(=O)N[C@@H](CCC(N)=O)C(N)=O)NC(=O)[C@H](CC(N)=O)NC(=O)[C@H](Cc3ccccc3)NC(=O)[C@H](C)NC(=O)[C@H](C)NC(=O)[C@H](CC(=O)O)NC(=O)[C@H](CC(=O)O)NC1=O)NC(=O)[C@H](CC(C)(C)C)NC(=O)C[C@H](CC(=O)O)NC2=O (stereo partly drawn) [I-1164, Ac-PL3-RbGlu-Npg-B5-Asp-Asp-Ala-Ala-Phe-Asn-S8-3Thi-BztA-Gln-NH2] | 50 (≈ 94.5 µg/mL) | 162 | – | – | – | IC50 [4, 6]: 162 nM; CHI Log D ([2]; pH 7.4): 2.13 |

More lines, main results first:

| Solubility [3] [µM] | IC50 [4, 5] [nM] | chromatographic logD ([2]; pH 7.4, CHI Log D) | Solubility ([3]; Solubility (uM)) [µM] | IC50 ([4]; read-out: beta-Catenin FP IC50) [nM] | Compound | other results |
| --- | --- | --- | --- | --- | --- | --- |
| 10 (≈ 19.3 µg/mL) | – | 2.72 | – | 40 | CC(=O)N1CCC[C@]12CC=CCCCC1(CCCC=CCCCOC(=O)N3CC[C@@](C(=O)N[C@@H](Cc4ccccc4Cl)C(=O)N[C@@H](Cc4csc5ccccc45)C(=O)N[C@@H](CO)C(N)=O)(C3)NC(=O)[C@H](CC(C)C)NC(=O)[C@H](Cc3ccccc3)NC(=O)[C@H](C)NC(=O)[C@H](C)NC(=O)[C@H](CC(=O)O)NC(=O)[C@H](CC(=O)O)NC1=O)NC(=O)[C@H](CC1CCCCC1)NC(=O)[C@H](CC(=O)O)NC2=O (stereo partly drawn) [I-1112, Ac-PL3-Asp-Cha-B5-Asp-Asp-Ala-Ala-Phe-Leu-PyrS2-2C1F-BztA-Ser-NH2] | – |
| 10 (≈ 19.7 µg/mL) | – | 2.99 | – | 64 | CC(=O)N1CCC[C@]12CC=CCCCC1(CCCC=CCCCOC(=O)N3CC[C@@](C(=O)N[C@@H](Cc4ccccc4Cl)C(=O)N[C@@H](Cc4csc5ccccc45)C(=O)N[C@@H](CO)C(N)=O)(C3)NC(=O)[C@H](CC3CCCCC3)NC(=O)[C@H](Cc3ccccc3)NC(=O)[C@H](C)NC(=O)[C@H](C)NC(=O)[C@H](CC(=O)O)NC(=O)[C@H](CC(=O)O)NC1=O)NC(=O)[C@H](CC1CCCCC1)NC(=O)[C@H](CC(=O)O)NC2=O (stereo partly drawn) [I-1113, Ac-PL3-Asp-Cha-B5-Asp-Asp-Ala-Ala-Phe-Cha-PyrS2-2C1F-BztA-Ser-NH2] | – |
| – | – | 2.62 | 13 (≈ 25.7 µg/mL) | 40 | CC(=O)N1CCC[C@]12CC=CCCCC1(CCCC=CCCCOC(=O)N3CC[C@@](C(=O)N[C@@H](Cc4ccccc4Cl)C(=O)N[C@@H](Cc4csc5ccccc45)C(=O)N[C@@H](CO)C(N)=O)(C3)NC(=O)[C@H](CC(C)C)NC(=O)[C@H](Cc3ccccc3)NC(=O)[C@H](C)NC(=O)[C@H](C)NC(=O)[C@H](CC(=O)O)NC(=O)[C@H](CC(=O)O)NC1=O)NC(=O)[C@H](Cc1cccc3ccccc13)NC(=O)[C@H](CC(=O)O)NC2=O (stereo partly drawn) [I-1116, Ac-PL3-Asp-1NapA-B5-Asp-Asp-Ala-Ala-Phe-Leu-PyrS2-2C1F-BztA-Ser-NH2] | – |
| 10 (≈ 19.7 µg/mL) | – | 2.61 | – | 55 | CC(=O)N1CCC[C@]12CC=CCCCC1(CCCC=CCCCOC(=O)N3CC[C@@](C(=O)N[C@@H](Cc4ccccc4Cl)C(=O)N[C@@H](Cc4csc5ccccc45)C(=O)N[C@@H](CO)C(N)=O)(C3)NC(=O)[C@H](CC(C)C)NC(=O)[C@H](Cc3ccccc3)NC(=O)[C@H](C)NC(=O)[C@H](C)NC(=O)[C@H](CC(=O)O)NC(=O)[C@H](CC(=O)O)NC1=O)NC(=O)[C@H](Cc1ccc3ccccc3c1)NC(=O)[C@H](CC(=O)O)NC2=O (stereo partly drawn) [I-1117, Ac-PL3-Asp-2NapA-B5-Asp-Asp-Ala-Ala-Phe-Leu-PyrS2-2C1F-BztA-Ser-NH2] | – |
| – | – | 2.33 | 29 (≈ 57.4 µg/mL) | 39 | CC(=O)N1CCC[C@]12CC=CCCCC1(CCCC=CCCCOC(=O)N3CC[C@@](C(=O)N[C@@H](Cc4ccccc4)C(=O)N[C@@H](Cc4csc5ccccc45)C(=O)N[C@@H](CCC(N)=O)C(N)=O)(C3)NC(=O)[C@H](CC(C)C)NC(=O)[C@H](Cc3ccc(C(F)(F)F)cc3)NC(=O)[C@H](C)NC(=O)[C@H](C)NC(=O)[C@H](CC(=O)O)NC(=O)[C@H](CC(=O)O)NC1=O)NC(=O)[C@H](CC(C)(C)C)NC(=O)[C@H](CC(=O)O)NC2=O (stereo partly drawn) [I-1129, Ac-PL3-Asp-Npg-B5-Asp-Asp-Ala-Ala-4F3MeF-Leu-PyrS2-Phe-BztA-Gln-NH2] | – |
| – | 61 | 1.88 | 45 (≈ 86.9 µg/mL) | – | CC(=O)N1CCC[C@]12CC=CCCCC1(CCCC=CCCCOC(=O)N3CC[C@@](C(=O)N[C@@H](Cc4ccsc4)C(=O)N[C@@H](Cc4csc5ccccc45)C(=O)N[C@@H](CCC(N)=O)C(N)=O)(C3)NC(=O)[C@H](CC(N)=O)NC(=O)[C@H](Cc3ccccc3)NC(=O)[C@H](C)NC(=O)[C@H](C)NC(=O)[C@H](CC(=O)O)NC(=O)[C@H](CC(=O)O)NC1=O)NC(=O)[C@H](CC(C)(C)C)NC(=O)C[C@H](CC(=O)O)NC2=O (stereo partly drawn) [I-1159, Ac-PL3-RbGlu-Npg-B5-Asp-Asp-Ala-Ala-Phe-Asn-PyrS2-3Thi-BztA-Gln-NH2] | – |

From patent publication US20240116985A1, “STAPLED PEPTIDES AND METHODS THEREOF” (priority 2020, published 2024)
